Test results reported in patent EP2787001A1, “(E)-3-Aryl-3-oxoprop-1-enyl-2-phosphonic acid and its derivatives, methods for their preparation and their use” (Centrum Badan Molekularnych I Makromolekularnych Polskiej …, priority 2013, dated 2014).

How the values were obtained:
[1] = test system: DNA plasmid pcDNA 3.1 HisC (8.2 kb); assay: Digestion of plasmid DNA with restriction enzyme Bam H1 after incubation with compounds (agarose gel electrophoresis); format: biochemical; settings: compound 2 or 20 µM, overnight incubation at 37°C, then BamH1 2U/sample for 3 hours at 37°C; gel not shown
Experimental: The impact of compounds 1a and 1b has been tested on the digestion of DNA plasmid pcDNA 3.1 HisC (8.2 kb) with restriction enzyme Bam H1.
1. For this purpose, pcDNA 3.1 HisC plasmid DNA (0.6 µg) was dissolved in 1×BamH1 buffer and incubated overnight at 37°C with the following reference or test compounds:
The concentration of the reference and test compounds in each sample was 2 or 20 µM.
2. After overnight incubation, the reaction mixture was digested with BamH1 restriction enzyme (2U/sample) for 3 hours at 37°C. The total volume of the samples was 10 µL.
3. The reaction products were applied on 1% agarose gel and electrophoresis was performed in TAE buffer.

[2] = test system: synthetic DNA duplex (23 nt- 5'TCTTCAAGAATTCAGGTCCTGAT 3'); assay: Circular dichroism (CD) spectra of DNA with test compounds; format: binding; settings: DNA duplex 2µM, compound 20µM, 0.2% DMSO, PBS, 23°C, immediately after addition
Experimental: The ability of the test compounds 1a and 1b to interact with DNA was tested by the circular dichroism (CD) technique.
1. For this purpose, samples were prepared in PBS buffer containing: 2µM of synthetic DNA duplex (23 nt- 5'TCTTCAAGAATTCAGGTCCTGAT 3') or DNA of bovine thymus (0.2 mg/ml) and test compounds at a concentration of 20µM or 40µM for synthetic DNA duplex sample and thymus DNA sample, respectively. The samples contained 0.2% or 0.4% DMSO (for synthetic DNA duplex sample and thymus DNA sample, respectively), which is a solvent of the test compounds.
2. CD spectra (in the range from 200 nm to 320 nm) were recorded immediately after addition of the test compounds as well as after 1.5 h incubation. The measurement was carried out at 23°C in a quartz cuvette (optical path length 0.5 cm) using a spectroscope CD6 (Jobin-Yvon, France).
3. CD spectra of DNA incubated with the test compounds were compared with the control spectrum (spectrum was recorded for a sample of DNA (2µM or 0.2 mg/ml) in the presence of DMSO (final concentration of 0.2% or 0.4%).

Row | SMILES | interaction with plasmid DNA: resistance to digestion by the endonucleolytic enzyme Bam H1 [1] | change of CD spectrum of duplex DNA compared to the control (duplex DNA + DMSO) [2]
1 | COc1cccc2c1C(=O)c1c(O)c3c(c(O)c1C2=O)C[C@@](O)(C(C)=O)C[C@@H]3O[C@H]1C[C@H](N)[C@H](O)[C@H](C)O1 [Daunorubicin, reference compound] | increasing its resistance to digestion | changing significantly its structure
2 | O=C(/C(=C/c1ccc2ccc3cccc4ccc1c2c34)P(=O)(O)O)c1ccc2c(c1)OCO2 [Compound 1b, (Z)-3-(benzo[d][1,3]dioxol-5-yl)-1-(pyrene-1-yl)-3-oxoprop-1-en-2-ylphosphonic acid] | increasing its resistance to digestion | changes compared to the control sample
3 | COP(=O)(OC)/C(=C/c1ccc2ccc3cccc4ccc1c2c34)C(=O)c1ccc2c(c1)OCO2 [Compound 1a] | increasing its resistance to digestion | changes compared to the control sample
